# Test results published in patent publication US20080161232A1, “C5a Receptor Antagonist” (JERINI AG, priority 2005, published 2008).
# Read-outs that look alike come from different tables or passages of the source. Starred links: 1 amine or outer side, 2 acyl side, 3 side chain; linkers in the order of their positions; H or OH if unused. Positions of bridges follow the written chain, without caps; N, C: chain ends. Non-standard residues stand in square brackets, D forms with d. Residues, ends and D or L forms follow the SMILES beside them. *: point of attachment. Phe(4-guanidino) = N=C(N)Nc1ccc(C[C@H](N)C(=O)O)cc1; Phe(F5) = N[C@@H](Cc1c(F)c(F)c(F)c(F)c1F)C(=O)O; Phe(Nα-CONH2) = NC(=O)N[C@@H](Cc1ccccc1)C(=O)*; X7 = CC(=O)NCS(=O)(=O)C[C@H](N[*:1])C(=O)[*:2]; Phe(2-CF3) = N[C@@H](Cc1ccccc1C(F)(F)F)C(=O)O; Phe(3-Cl) = N[C@@H](Cc1cccc(Cl)c1)C(=O)O; Phe(4-Cl) = N[C@@H](Cc1ccc(Cl)cc1)C(=O)O; Phe(4-NH2) = Nc1ccc(C[C@H](N)C(=O)O)cc1; Phe(3-F) = N[C@@H](Cc1cccc(F)c1)C(=O)O; Phe(4-F) = N[C@@H](Cc1ccc(F)cc1)C(=O)O; X10 = CCN(CC)[C@@H](Cc1ccccc1)C(=O)*; X11 = N=C(N)N[C@@H](Cc1ccccc1)C(=O)*; Bta = N[C@@H](Cc1csc2ccccc12)C(=O)O; Hydrocinnamoyl = O=C(CCc1ccccc1)*; Hyp = O=C(O)[C@@H]1C[C@@H](O)CN1; d(hLeu) = CC(C)CC[C@@H](N)C(=O)O; 4Pal = N[C@@H](Cc1ccncc1)C(=O)O; 2Thi = N[C@@H](Cc1cccs1)C(=O)O; dCha = N[C@H](CC1CCCCC1)C(=O)O; dChg = N[C@@H](C(=O)O)C1CCCCC1; NMeS = CN[C@@H](CO)C(=O)O; hSer = N[C@@H](CCO)C(=O)O; Nle = CCCC[C@H](N)C(=O)O; Orn = NCCC[C@H](N)C(=O)O; Aze = O=C(O)[C@@H]1CCN1; CO = O=C([*:1])[*:2]; Nme = COCCNCC(=O)O; NHBu = CCCCN*
# Biological target: T1, human C5aR(CD88) (Homo sapiens, UniProt P21730)
# T1 construct: expressed in transfected cells; host or cells: rat basophilic leukemia cells (RBL)
# T1 sequence (P21730 1-350): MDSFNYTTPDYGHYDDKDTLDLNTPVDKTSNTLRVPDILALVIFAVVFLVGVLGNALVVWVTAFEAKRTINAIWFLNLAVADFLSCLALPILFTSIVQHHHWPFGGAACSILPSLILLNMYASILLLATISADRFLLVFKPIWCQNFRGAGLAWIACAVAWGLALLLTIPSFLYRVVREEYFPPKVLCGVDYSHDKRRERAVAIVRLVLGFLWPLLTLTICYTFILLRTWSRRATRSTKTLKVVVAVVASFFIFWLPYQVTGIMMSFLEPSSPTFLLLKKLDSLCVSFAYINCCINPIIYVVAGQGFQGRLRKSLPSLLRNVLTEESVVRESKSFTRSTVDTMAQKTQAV
# Test: Determination of the IC50 value in an enzyme release assay (functional assay, antagonistic activity)
# Format: cell-based
# Settings: for inhibitory activity (in words): functional assay of example 11, noteworthy = IC50 less than 200 nM
# [1] = antagonistic activity, IC50 group in enzyme release assay, RBL cells expressing human C5aR(CD88), read-out: activity (group)
IC50 [1] [µM],SMILES,also measured
0.05 to 0.2,"CSCC[C@@H]1NC(=O)[C@H](Cc2c[nH]c3ccccc23)NC(=O)[C@@H](CC2CCCCC2)NC(=O)[C@@H]2CCCN2C(=O)[C@@H](NC(=O)[C@H](Cc2ccccc2)NC(C)=O)CCCNC1=O [Compound 29, Ac-Phe-[Orn-Pro-cha-Trp-Met]] (Ac-F[Orn]P[dCha]WM; lactam 2-C)",inhibitory activity (in words): without significant loss of activity; inhibitory activity (in words) (listed as Ac-Phe-[Orn-Pro-cha-Trp-Met]): noteworthy inhibitory activity
0.02 to 0.05,"CC(=O)N[C@@H](Cc1cccs1)C(=O)N[C@@H](CCCN)C(=O)N1CCC[C@H]1C(=O)N[C@H](CC1CCCCC1)C(=O)N[C@@H](Cc1csc2ccccc12)C(=O)N[C@@H](Cc1cccs1)C(N)=O [Compound 313, Ac-Thi-Orn-Pro-cha-Bta-Thi-NH2] (Ac-[2Thi][Orn]P[dCha][Bta][2Thi]-NH2)",–
0.05 to 0.2,"CC(=O)NCC(=O)N[C@@H](Cc1ccccc1)C(=O)N[C@@H](CCCN)C(=O)N1CC[C@H]1C(=O)N[C@@H](C(=O)N[C@@H](Cc1csc2ccccc12)C(=O)N[C@@H](Cc1ccccc1)C(N)=O)C1CCCCC1 [Compound 155, Ac-Gly-Phe-Orn-Aze-chg-Bta-Phe-NH2] (Ac-GF[Orn][Aze][dChg][Bta]F-NH2)",–
0.02 to 0.05,"CCCC[C@@H]1NC(=O)[C@H](Cc2c[nH]c3ccccc23)NC(=O)[C@@H](CC2CCCCC2)NC(=O)[C@@H]2C[C@@H](O)CN2C(=O)[C@@H](NC(=O)CCc2ccccc2)CCCNC1=O [Compound 145, 3PP-[Orn-Hyp-cha-Trp-Nle]] (Hydrocinnamoyl-[Orn][Hyp][dCha]W[Nle]; lactam 1-C)",–
0.05 to 0.2,"CC(=O)N[C@@H](Cc1ccccc1)C(=O)N[C@@H](CCCNC(=N)N)C(=O)N1CCC[C@H]1C(=O)N[C@H](CCC(C)C)C(=O)N[C@@H](Cc1cccc(Cl)c1)C(=O)N[C@@H](Cc1ccccc1)C(N)=O [Compound 208, Ac-Phe-Arg-Pro-hle-Mcf-Phe-NH2] (Ac-FRP[d(hLeu)][Phe(3-Cl)]F-NH2)",–
0.05 to 0.2,CC(=O)N[C@@H](Cc1ccccc1)C(=O)N[C@H]1CCCNC(=O)[C@H](Cc2ccncc2)NC(=O)[C@H](Cc2c[nH]c3ccccc23)NC(=O)[C@@H](CC2CCCCC2)NC(=O)[C@@H]2CCCN2C1=O [compound 23] (Ac-F[Orn]P[dCha]W[4Pal]; lactam 2-C),–
0.05 to 0.2,"CC(=O)N[C@@H](Cc1ccccc1)C(=O)N[C@@H](CCCN)C(=O)N1CCC[C@H]1C(=O)N[C@H](CCC(C)C)C(=O)N[C@@H](Cc1csc2ccccc12)C(=O)N[C@@H](Cc1ccc(O)cc1)C(N)=O [Compound 282, Ac-Phe-Orn-Pro-hle-Bta-Tyr-NH2] (Ac-F[Orn]P[d(hLeu)][Bta]Y-NH2)",–
0.2 to 2,"CNC(=O)[C@H](Cc1ccccc1)NC(=O)[C@H](Cc1csc2ccccc12)NC(=O)[C@@H](CC1CCCCC1)NC(=O)[C@@H]1CCN1C(=O)[C@H](CCCN)NC(=O)[C@H](Cc1ccccc1)NC(C)=O [Compound 95, Ac-Phe-Orn-Aze-cha-Bta-Phe-NH—Me] (Ac-F[Orn][Aze][dCha][Bta]F-NHMe)",–
0.2 to 2,"CC(=O)N[C@@H](Cc1ccccc1)C(=O)N[C@@H](CCCN)C(=O)N1CC[C@H]1C(=O)N[C@H](CC1CCCCC1)C(=O)N[C@@H](Cc1ccc(Cl)cc1)C(=O)N[C@@H](Cc1ccccc1)C(N)=O [Compound 81, Ac-Phe-Orn-Aze-cha-Pcf-Phe-NH2] (Ac-F[Orn][Aze][dCha][Phe(4-Cl)]F-NH2)",–
0.05 to 0.2,"CC(C)CC[C@H]1NC(=O)[C@H](CO)N(C)C(=O)[C@@H](NC(=O)[C@@H](N)Cc2ccccc2)CCCNC(=O)[C@H](Cc2ccccc2)NC(=O)[C@H](Cc2ccc(F)cc2)NC1=O [Compound 373, H-Phe-[Orn-NMS-hle-Pff-Phe]] (H-F[Orn][NMeS][d(hLeu)][Phe(4-F)]F; lactam 2-C)",–
0.05 to 0.2,"CCCC[C@@H]1NC(=O)[C@H](Cc2ccc(F)cc2)NC(=O)[C@@H](CCC(C)C)NC(=O)[C@@H]2CCCN2C(=O)[C@@H](NC(=O)[C@@H](N)Cc2ccccc2)CCCNC1=O [Compound 379, H-Phe-[Orn-Pro-hle-Pff-Nle]] (H-F[Orn]P[d(hLeu)][Phe(4-F)][Nle]; lactam 2-C)",–
0.02 to 0.05,"CC(=O)N[C@@H](Cc1ccccc1)C(=O)N[C@@H](CCCN)C(=O)N1CC[C@H]1C(=O)N[C@H](CCC(C)C)C(=O)N[C@@H](Cc1csc2ccccc12)C(=O)N[C@@H](Cc1ccccc1)C(N)=O [Compound 234, Ac-Phe-Orn-Aze-hle-Bta-Phe-NH2] (Ac-F[Orn][Aze][d(hLeu)][Bta]F-NH2)",–
0.05 to 0.2,"CC(=O)N[C@@H](Cc1ccccc1)C(=O)N[C@@H](CCCN)C(=O)N[C@@H](CCO)C(=O)N[C@H](CC1CCCCC1)C(=O)N[C@@H](Cc1csc2ccccc12)C(=O)N[C@@H](Cc1ccccc1)C(N)=O [Compound 243, Ac-Phe-Orn-Hse-cha-Bta-Phe-NH2] (Ac-F[Orn][hSer][dCha][Bta]F-NH2)",–
0.02 to 0.05,"CC(=O)N[C@@H](Cc1ccccc1)C(=O)N[C@H]1CCCNC(=O)[C@H](Cc2ccc(N)cc2)NC(=O)[C@H](Cc2c[nH]c3ccccc23)NC(=O)[C@@H](CC2CCCCC2)NC(=O)[C@@H]2CCCN2C1=O [Compound 14, Ac-Phe-[Orn-Pro-cha-Trp-Paf]] (Ac-F[Orn]P[dCha]W[Phe(4-NH2)]; lactam 2-C (inferred))","IC50 (functional assay of example 11, values in text, read-out: IC50): 0.03 µM; inhibitory activity (in words): noteworthy inhibitory activity"
0.2 to 2,"CCCCNC(=O)N[C@@H](Cc1ccccc1)C(=O)N[C@@H](CCCN)C(=O)N1CCC[C@H]1C(=O)N[C@H](CC1CCCCC1)C(=O)N[C@@H](Cc1c[nH]c2ccccc12)C(=O)N[C@@H](Cc1ccccc1)C(N)=O [Compound 76, Bu-NH—CO-Phe-Orn-Pro-cha-Trp-Phe-NH2] ({NHBu-CO}-F[Orn]P[dCha]WF-NH2)",–
0.05 to 0.2,"CCCC[C@@H]1NC(=O)[C@H](Cc2c[nH]c3ccccc23)NC(=O)[C@@H](CCC(C)C)NC(=O)[C@H](CO)NC(=O)[C@@H](NC(=O)[C@H](Cc2ccccc2)N(CC)CC)CCCNC1=O [Compound 317, Def-[Orn-Ser-hle-Trp-Nle]] (X10-[Orn]S[d(hLeu)]W[Nle]; lactam 1-C)",–
0.05 to 0.2,"COCCN(CC(=O)N[C@H](CC1CCCCC1)C(=O)N[C@@H](Cc1csc2ccccc12)C(=O)N[C@@H](Cc1ccccc1)C(N)=O)C(=O)[C@H](CCCN)NC(=O)[C@H](Cc1ccccc1)NC(C)=O [Compound 238, Ac-Phe-Orn-G25-cha-Bta-Phe-NH2] (Ac-F[Orn][Nme][dCha][Bta]F-NH2)",–
0.05 to 0.2,"NC(=O)N[C@@H](Cc1ccccc1)C(=O)N[C@H]1CCCNC(=O)[C@H](Cc2ccccc2)NC(=O)[C@H](Cc2c[nH]c3ccccc23)NC(=O)[C@@H](CC2CCCCC2)NC(=O)[C@@H]2C[C@@H](O)CN2C1=O [Compound 323, Fai-Phe-[Orn-Hyp-cha-Trp-Phe]] ({Phe(Nα-CONH2)}-[Orn][Hyp][dCha]WF; lactam 1-C)",–
0.2 to 2,CC(=O)N[C@@H](Cc1ccccc1)C(=O)N[C@H]1CCCNC(=O)[C@H](Cc2ccc(NC(=N)N)cc2)NC(=O)[C@H](Cc2c[nH]c3ccccc23)NC(=O)[C@@H](CC2CCCCC2)NC(=O)[C@@H]2CCCN2C1=O [compound 9] (Ac-F[Orn]P[dCha]W[Phe(4-guanidino)]; lactam 2-C),–

SMILES,IC50 [1] [µM],also measured
"CC(=O)N[C@@H](Cc1ccccc1)C(=O)N[C@@H](CCCN)C(=O)N1CCC[C@H]1C(=O)N[C@H](CCC(C)C)C(=O)N[C@@H](Cc1csc2ccccc12)C(=O)N[C@@H](Cc1c(F)c(F)c(F)c(F)c1F)C(N)=O [Compound 272, Ac-Phe-Orn-Pro-hle-Bta-5Ff-NH2] (Ac-F[Orn]P[d(hLeu)][Bta][Phe(F5)]-NH2)",0.05 to 0.2,–
"CC(=O)N[C@@H](Cc1ccccc1)C(=O)N[C@@H](CCCN)C(=O)N1CCC[C@H]1C(=O)N[C@H](CCC(C)C)C(=O)N[C@@H](Cc1cccc(F)c1)C(=O)N[C@@H](Cc1ccccc1)C(N)=O [Compound 292, Ac-Phe-Orn-Pro-hle-Mff-Phe-NH2] (Ac-F[Orn]P[d(hLeu)][Phe(3-F)]F-NH2)",0.05 to 0.2,–
"CCCC[C@@H]1NC(=O)[C@H](Cc2c[nH]c3ccccc23)NC(=O)[C@@H](CC2CCCCC2)NC(=O)[C@H](CO)N(C)C(=O)[C@@H](NC(=O)[C@@H](N)Cc2ccccc2)CCCNC1=O [Compound 372, H-Phe-[Orn-NMS-cha-Trp-Nle]] (H-F[Orn][NMeS][dCha]W[Nle]; lactam 2-C)",0.05 to 0.2,–
"N=C(N)N[C@@H](Cc1ccccc1)C(=O)N[C@@H](CCCN)C(=O)N1CCC[C@H]1C(=O)N[C@H](CC1CCCCC1)C(=O)N[C@@H](Cc1csc2ccccc12)C(=O)N[C@@H](Cc1ccccc1)C(N)=O [Compound 339, Fhu-Phe-Orn-Pro-cha-Bta-Phe-NH2] (X11-[Orn]P[dCha][Bta]F-NH2)",0.05 to 0.2,–
"CC(=O)N[C@@H](Cc1ccccc1)C(=O)N[C@H]1CCCNC(=O)[C@H](Cc2ccccc2)NC(=O)[C@H](Cc2csc3ccccc23)NC(=O)[C@@H](CCC(C)C)NC(=O)[C@@H]2CCCN2C1=O [Compound 197, Ac-Phe-[Orn-Pro-hle-Bta-Phe]] (Ac-F[Orn]P[d(hLeu)][Bta]F; lactam 2-C)",0.05 to 0.2,–
"CC(=O)NCS(=O)(=O)C[C@H](NC(=O)[C@H](Cc1ccccc1)NC(C)=O)C(=O)N1CCC[C@H]1C(=O)N[C@H](CC1CCCCC1)C(=O)N[C@@H](Cc1csc2ccccc12)C(=O)N[C@@H](Cc1ccccc1)C(N)=O [Compound 218, Ac-Phe-Eep-Pro-cha-Bta-Phe-NH2] (Ac-F[X7]P[dCha][Bta]F-NH2)",0.05 to 0.2,–
"CC(=O)N[C@@H](Cc1ccccc1)C(=O)N[C@@H](CCCN)C(=O)N1CCC[C@H]1C(=O)N[C@H](CC1CCCCC1)C(=O)N[C@@H](Cc1ccccc1C(F)(F)F)C(=O)N[C@@H](Cc1ccccc1)C(N)=O [Compound 262, Ac-Phe-Orn-Pro-cha-Otf-Phe-NH2] (Ac-F[Orn]P[dCha][Phe(2-CF3)]F-NH2)",0.05 to 0.2,–
